Measured values: ChEMBL document CHEMBL3045685, “Discovery of bis-aromatic ring neonicotinoid analogues fixed as cis-configuration: Synthesis, insecticidal activities, and molecular docking studies” (2010)

Legend:
Format in all cases: functional
Nilaparvata lugens [1] = test: In vivo insecticidal activity against fifth-instar larval stage of Nilaparvata lugens (brown planthopper) in second semester rice seedlings assessed as insect mortality at 100 mg/L treated for 5 secs before larval infestation measured after 72 hr
Nilaparvata lugens [2] = test: In vivo insecticidal activity against fifth-instar larval stage of Nilaparvata lugens (brown planthopper) in second semester rice seedlings assessed as insect mortality at 10 mg/L treated for 5 secs before larval infestation measured after 72 hr
Nilaparvata lugens [3] = test: In vivo insecticidal activity against fifth-instar larval stage of Nilaparvata lugens (brown planthopper) in second semester rice seedlings assessed as insect mortality at 500 mg/L treated for 5 secs before larval infestation measured after 72 hr

SMILES | mortality at 100 µg/mL (Nilaparvata lugens [1]) [%] | mortality at 10 µg/mL (Nilaparvata lugens [2]) [%] | mortality at 500 µg/mL (Nilaparvata lugens [3]) [%]
CCOC(=O)CN1CC([N+](=O)[O-])=C(N(CC)Cc2ccc(Cl)nc2)N(C)C1 | 100 | ≥ 90 | 100
CCN(Cc1ccc(Cl)nc1)C1=C([N+](=O)[O-])CN(Cc2ccc(Cl)nc2)CN1C | 100 | ≥ 80 | 100
CCN(Cc1ccc(Cl)nc1)C1=C([N+](=O)[O-])CN(CCc2ccccc2)CN1C | 100 | ≥ 80 | 100
CCN(Cc1ccc(Cl)nc1)C1=C([N+](=O)[O-])CN(C2CCCCC2)CN1C | ≥ 80 | ≥ 60 | ≥ 90
CCN(Cc1ccc(Cl)nc1)C1=C([N+](=O)[O-])CN(c2ccccc2)CN1C | ≥ 90 | ≥ 70 | 100
CCN(Cc1ccc(Cl)nc1)C1=C([N+](=O)[O-])CN(c2ccc(F)cc2)CN1C | 100 | ≥ 80 | 100
CCN(Cc1ccc(Cl)nc1)C1=C([N+](=O)[O-])CN(c2ccccc2OC)CN1C | 100 | ≥ 60 | 100
CCN(Cc1ccc(Cl)nc1)C1=C([N+](=O)[O-])CN(Cc2ccccc2)CN1C | 100 | ≥ 90 | 100
CCN(Cc1ccc(Cl)nc1)C1=C([N+](=O)[O-])CN(Cc2ccc(C)cc2)CN1C | ≥ 70 | ≥ 50 | 100
CCN(Cc1ccc(Cl)nc1)C1=C([N+](=O)[O-])CN(Cc2ccc(OC)cc2)CN1C | ≥ 50 |  | ≥ 90
CCN(Cc1ccc(Cl)nc1)C1=C([N+](=O)[O-])CN(Cc2ccccn2)CN1C | ≥ 80 | ≥ 70 | 100
CCOC(=O)C(CC(C)C)N1CC([N+](=O)[O-])=C(N(CC)Cc2ccc(Cl)nc2)N(C)C1 (racemic) | ≥ 50 | < 50 | ≥ 70
CCOC(=O)C(Cc1ccccc1)N1CC([N+](=O)[O-])=C(N(CC)Cc2ccc(Cl)nc2)N(C)C1 (racemic) | ≥ 70 | ≥ 60 | ≥ 80
CCN(Cc1ccc(Cl)nc1)C1=C([N+](=O)[O-])CN(C(C)c2ccc(C)cc2)CN1C (racemic) | ≥ 80 | ≥ 70 | ≥ 90
CCN(Cc1ccc(Cl)nc1)C1=C([N+](=O)[O-])CN(C(C)c2ccccc2)CN1C (single isomer, unassigned; (+)) | 100 | ≥ 80 | 100
CCN(Cc1ccc(Cl)nc1)/C(=C/[N+](=O)[O-])NC [NITENPYRAM] | 100 | 100 | 100
